Our source for the IC50 values is patent US20160052898A1, “NOVEL COMPOUNDS” (BAYER PHARMA AKTIENGESELLSCHAFT, priority 2013, published 2016).

Holding throughout (type): cell-based
Test [1] deals with constitutive active colorectal cancer cell (CRC) Wnt pathway. In words: HCT116 Super TopFlash cellular reporter assay (constitutive active Wnt pathway). To be noted: Homo sapiens, HCT-116, 36 h, HCT116 TOP reporter cells, luciferase expression, 36 hours incubation, 50 μM to 15 nM. The method in brief:
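Luciferase luminescence served as the Wnt read-out after 36 h of compound treatment at 37 °C. Compound came from a pre-dilution series (50 μM down to 15 nM, 3.16-fold steps) in CAFTY buffer. Cells were stable HCT116 TOP reporter cells, with matched FOP-vector control cells tested in parallel, seeded a day earlier.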
For orientation: A reporter such as luciferase makes a cellular process visible.

For a further test, the system named is wildtype Wnt pathway. In words: HEK293 Super TopFlash cellular reporter assay, Wnt-3a stimulated (wildtype Wnt pathway). To be noted: Homo sapiens; HEK293 TOP reporter cells, EC50 concentration of recombinant Wnt-3a, 16 hours incubation; read-out: HEK TOP OncoFlash IC50. Here is the method: (§1) In order to determine the inhibitory activity of compounds for the WT Wnt signaling pathway, the Super TopFlash vector respectively FOP vector were cotransfected with pcDNA3 into HEK293 and stable transfected HEK293 cells were isolated by antibiotic selection. […] The recombinant human Wnt-3a was thereby used between 2500 and 5 ng/ml in two-fold dilution steps. […] Measurement of luciferase expression was done as described for the constitutive active Wnt assay.
In order to discover and characterize small molecules which inhibit the wildtype Wnt pathway, a cellular reporter assay was employed. The corresponding assay cell was generated by transfection of the mammalian cell line HEK293 (ATCC, #CRL-1573) with the Super TopFlash vector (Morin, Science 275, 1997, 1787-1790; Molenaar et al., Cell 86 (3), 1996, 391-399). The HEK293 cell line is cultivated at 37° C. and 5% CO2 in DMEM (Life Technologies, #41965-039), supplemented with 2 mM glutamine, 20 mM HEPES, 1.4 mM pyruvate, 0.15% Na-bicarbonate and 10% foetal bovine serum (GIBCO, #10270). Stable transfectants were generated by selection with 300 μg/ml Hygromycin.
(§2) In preparation of the assay, the two cell lines were plated 24 hours before beginning the test at 10000 cells per well in a 384 micro titre plate (MTP) in […] growth medium. […] The recombinant human Wnt-3a was thereby applied between 2500 and 5 ng/ml in two-fold dilution steps. Selective inhibitory activity for small molecules on the wildtype Wnt pathway was determined after parallel incubation of both (TOP and FOP) HEK293 reporter cell lines with a compound dilution series from 50 μM to 15 nM in steps of 3.16-fold dilutions in CAFTY buffer (130 mM NaCl, 5 mM KCl, 20 mM HEPES, 1 mM MgCl2, 5 mM NaHCO3, pH 7.4) containing 2 mM Ca^2+ and 0.01% BSA.
(§3) The compounds were thereby serially prediluted in 100% DMSO and thereafter 50 fold into the CAFTY compound dilution buffer (described above).

Test [2] relates to HEK293 FOP control reporter cell line. The experiment in a line: HEK293 FOP control vector reporter assay. The following applies: Homo sapiens; HEK293 FOP control reporter cells, EC50 concentration of recombinant Wnt-3a, 16 hours incubation; read-out: HEK FOP IC50. Here is the method: as §1
In a parallel approach, HEK293 cells were cotransfected with the FOP control vector and pcDNA3. The FOP vector is identical to the TOP construct, but it contains instead of functional TCF elements a randomized, non-functional sequence. For this transfection a stable transfected cell line was generated as well, based on selection with Geneticin (1 mg/ml).
as §2, §3

Test [3] concerns HCT116 FOP control reporter cell line. In words: HCT116 FOP control vector reporter assay (non-functional TCF elements). To be noted: Homo sapiens, HCT-116, 36 h, HCT116 FOP control reporter cells, luciferase expression, 36 hours incubation, 50 μM to 15 nM; read-out: HCT116 FOPFlash IC50. The method in brief:
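Stable HCT116 line carrying the non-functional FOP luciferase construct, 10000 cells/well plated 24 hrs before. Compounds 50 μM to 15 nM (3.16-fold steps) in CAFTY buffer pH 7.4 with 2 mM Ca2+, 36 hours at 37° C; luciferase luminescence read.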

Structures can show the parent of a compound that is named as a salt. Where only a bound is given, the exact number is not on record here.

As usually defined, the IC50 is the point on the concentration scale where inhibition reaches its midpoint. In the case of `COC(=O)c1ccc(-c2ccc(C(=O)Nc3ccc(OC)c(NC(=O)CN4CCOCC4)c3)cc2)cc1` [Example 79, methyl 4′-({4-methoxy-3-[(morpholin-4-ylacetyl)amino]phenyl}carbamoyl)biphenyl-4-carboxylate], the IC50 in test [1] was 1.48 µM; in the test on wildtype Wnt pathway, 4.1 µM; in test [2], at least 50 µM; in test [3], at least 50 µM.
As to `COCc1ccc(C(=O)Nc2ccc(-c3ccccc3)cc2)cc1NC(=O)C1(N2CCN(C)CC2)CC1` [Example 96, N-(biphenyl-4-yl)-4-(methoxymethyl)-3-({[1-(4-methylpiperazin-1-yl)cyclopropyl]carbonyl}amino)benzamide hydrochloride (1:1)], the IC50 in test [1] was 0.0345 µM; in the test on wildtype Wnt pathway, 0.04 µM; in test [2], 9.6 µM; in test [3], 8.25 µM.
`COc1ccc(C(=O)Nc2ccc(-c3ccccc3)cc2)cc1NC(=O)CN1CCOCC1` [Example 1, N-(biphenyl-4-yl)-4-methoxy-3-[(morpholin-4-ylacetyl)amino]benzamide]: the IC50 in test [1] was 0.157 µM; in the test with wildtype Wnt pathway it was 3.3 µM; in test [2], at least 50 µM; in test [3] it was at least 50 µM.
`COc1ccc(C(=O)Nc2ccc(-c3ccccc3)cc2)cc1NC(=O)CN1C[C@@H]2C[C@H]1CO2` [Example 7, N-(biphenyl-4-yl)-4-methoxy-3-{[(1S,4S)-2-oxa-5-azabicyclo[2.2.1]hept-5-ylacetyl]amino}benzamide]: the IC50 is 0.963 µM in test [1], 0.82 µM in the test with wildtype Wnt pathway, 10 µM in test [2] and at least 50 µM in test [3].
For `CC(C(=O)Nc1cc(NC(=O)c2ccc(-c3ccccc3)cc2)ccc1OC(F)(F)F)N1CC2CCC(C1)O2` (stereo not shown) [Example 58, N-[3-{[2-(8-oxa-3-azabicyclo[3.2.1]oct-3-yl)propanoyl]amino}-4-(trifluoromethoxy)phenyl]biphenyl-4-carboxamide] the same measures were 0.054 µM, 2.2 µM, 35 µM and at least 50 µM.
For `CN1CCN(C2(C(=O)Nc3cc(C(=O)Nc4ccc(-c5ccccc5)cc4)ccc3OC3CC3)CC2)CC1` [Example 114, N-(biphenyl-4-yl)-4-(cyclopropyloxy)-3-({[1-(4-methylpiperazin-1-yl)cyclopropyl]carbonyl}amino)benzamide], in that order: 0.0158 µM, 0.036 µM, at least 50 µM and 21 µM.
For `COc1ccc(NC(=O)c2ccc(-c3ccccc3)cc2)cc1NC(=O)CN1CC2CCC(C1)O2` [Example 32, N-{4-methoxy-3-[(8-oxa-3-azabicyclo[3.2.1]oct-3-ylacetyl)amino]phenyl}biphenyl-4-carboxamide] the same measures were 0.17 µM, 0.52 µM, 17 µM and at least 50 µM.
As to `CC(C(=O)Nc1cc(C(=O)Nc2ccc(-c3ccccc3)cc2)ccc1C(F)(F)F)N1CCOCC1` (stereo not shown) [Example 14, N-(biphenyl-4-yl)-3-{[2-(morpholin-4-yl)propanoyl]amino}-4-(trifluoromethyl)benzamide], the IC50 in test [1] is 0.027 µM; with wildtype Wnt pathway, 0.24 µM; in test [2], 7 µM; in test [3], at least 50 µM.
For `COc1ccc(C(=O)Nc2ccc(-c3ccccc3)cc2)cc1NC(=O)CN1CC2CCC(C1)O2` [Example 8, N-(biphenyl-4-yl)-4-methoxy-3-[(8-oxa-3-azabicyclo[3.2.1]oct-3-ylacetyl)amino]benzamide], in that order: 0.07 µM, 0.27 µM, at least 50 µM and at least 50 µM.
For `O=C(Nc1ccc(-c2ccccc2)cc1)c1ccc(Cl)c(NC(=O)C2(N3CCOCC3)CC2)c1` [Example 97, N-(biphenyl-4-yl)-4-chloro-3-({[1-(morpholin-4-yl)cyclopropyl]carbonyl}amino)benzamide] the same measures were 0.0242 µM, 0.25 µM, at least 50 µM and at least 50 µM.
